Test system: AKT
Test: Western blot of AKT and P-AKT in ectopic EMSCs
Format: cell-based, human
Conditions: 100 nM quinagolide
Procedure: FIG. 6: Quinagolide effect on AKT activation. A: Representative western blot analysis and quantification of AKT levels in eutopic and ectopic EMSCs treated for 48 h with 100 nM quinagolide (Q), compared to untreated cells (CTL). B: Representative western blot analysis and quantification of P-AKT levels, normalized to AKT expression, in eutopic and ectopic EMSCs treated for 48 h with 100 nM quinagolide (Q), respect to untreated cells (CTL). C: Representative western blot analysis and quantification of P-AKT levels in HUVECs, ectopic […] basal), and in […] co-culture with HUVECs, treated or not for 24 h with 100 nM quinagolide (Q100 nM). Data are represented as mean±SD of at least two independent experiments, performed on different EMSC lines, and normalized to Vinculin and to untreated cells (CTL). One-way ANOVA was performed: *=p<0.05 and **=p<0.001 vs CTL. Cell pellets were lysed at 4° C. for 15 minutes in RIPA buffer supplemented with protease and phosphatase inhibitors cocktail and PMSF (Sigma-Aldrich). Proteins were quantified using Bradford solution following the manufacturer procedures (Bio-Rad Inc., Berkely, CA, USA) and aliquots of cell lysates containing 50 μg of proteins were run on 4-12% Mini-Protean TGX Stain-Free Gels (Bio-Rad) under reducing conditions and transferred onto PVDF membrane filters using the iBLOT2 system (Life Technologies). […]

CCCN1C[C@@H](NS(=O)(=O)N(CC)CC)C[C@@H]2Cc3c(O)cccc3C[C@H]21 [quinagolide, N,N-diethyl-N′-[(3S,4aS,10aR)-6-hydroxy-1-propyl-1,2,3,4,4a,5,10,10a-octahydrobenzo[g]quinolin-3-yl]sulfamide]
total AKT levels (ectopic EMSCs, 48 h (FIG. 6A)): reduced | AKT phosphorylation (ectopic cell lines, 24 hours (text; legend 48 h)): significant decrease
